This is an account of results in patent US10800732B2, “Substituted malonamides and their use as antibacterial drugs” (National Taiwan University, priority 2015, dated 2020).

In brackets after ≈: the same amount, converted by molar mass.

Series [1] has as its system Acinetobacter baumannii BCRC 80276. Briefly: MIC, Acinetobacter baumannii. The format is cell-based. As to conditions: BCRC80276.
For series [2], the system named is Escherichia coli ATCC 25922. Briefly: MIC, Escherichia coli. Format: cell-based. As to conditions: ATCC25922.
For series [3], the system named is S. aureus NCTC 8325. Description: Time-kill kinetics. As to conditions: for reduction in CFU: 24-h treatment period; for bactericidal / bacteriostatic classification: killing over 99.9% of inoculum within 24 hours. Format: cell-based, Staphylococcus aureus.
Series [4] has as its system Salmonella Typhimurium ATCC 14028. Briefly: MIC, Salmonella Typhimurium. Format: cell-based. As to conditions: Salmonella enterica.
The test system of series [5] is MRSA (ATCC 43300). Description: MIC, MRSA ATCC 43300. As to conditions: MRSA (ATCC 43300). Format: cell-based, methicillin-resistant Staphylococcus aureus.
The subject of series [6] is S. aureus NCTC 8325. Description: Biosynthesis of macromolecules (3H precursor incorporation). As to conditions: 4×MIC for 1 h. The format is cell-based, Staphylococcus aureus. On the procedure:
FIG. 5. Effect of SC5005 and SC5035 on the biosynthesis of macromolecules in S. aureus. […] Meanwhile, ofloxacin (1 mg/L), rifampicin (1 mg/L), erythromycin (2 mg/L), and vancomycin (2 mg/L) were used as control inhibitors for the biosynthesis of DNA, RNA, protein and cell wall, respectively. Data are means of three independent experiments. Error bars represent the SD.
To investigate the mode of action of SC5005, a new derivative, SC5035, with better selectivity of antibacterial activity over cytotoxicity was included in the assays. First, the impacts of these two compounds on the biosynthesis of important macromolecules, including DNA, RNA, protein and cell wall, in S. aureus NCTC 8325 were assessed. Bacteria cells were incubated with [^3H]thymidine to assess DNA synthesis, [^3H] uridine to assess RNA synthesis, [^3H] leucine to assess protein synthesis, and [^3H] N-Acetyl-D-glucosamine to assess cell wall synthesis. The ofloxacin, rifampicin, erythromycin and vancomycin were used as control inhibitor for DNA, RNA, protein, and cell wall biosynthesis, respectively. Inhibition of biosynthesis pathway was determined by a reduction in the radial isotope signal of bacteria.

The next series relates to MSSA ATCC 29213. Description: MIC, MSSA ATCC 29213. As to conditions: Table 6. The format is cell-based, Staphylococcus aureus.
The next series has as its system human red blood cells. Description: Hemolytic activity. The format is cell-based. How it is done:
FIG. 9. Hemolytic activities of SC5005 and SC5035 on human red blood cell. Human red blood cells were incubated with SC5005 (A) and SC5035 (B) for 1 h followed by measuring the absorption of RBC released hemoglobin at 540 nm with microplate reader. Cell treated with 1% triton X-100 serves as positive control (P.C.; 100% hemolysis), and those treated with normal saline serves as negative control (N.C.) Bars represent the mean, and error bars represent the SD (n=3).
As data shown above, SC5005 and SC5035 can kill bacteria via forming pore in bacterial membrane. To see whether the pore-forming activity of these two compounds is specific for bacterial membrane, the hemolytic activities of these two agents on human red blood cells were accessed.

The test system of a further series is MRSA (ATCC 33592). Description: Survival of MRSA-infected C57BL/6 mice, intraperitoneal administration. As to conditions: surviving mice, 10 mg/kg.
In series [7] the test system is S. aureus NCTC 8325. Description: Transmission electron microscopy of cell membrane. The format is cell-based, Staphylococcus aureus. As to conditions: 15 min treatment, 100,000 magnifications. How it is done:
FIG. 8. Transmission electron microscopy image of S. aureus after SC5005 treatment. S. aureus NCTC 8325 was treated with (A) mock or (B) SC5005 for 15 min followed by glutaraldehyde (2.5%) fixation and osimium tetraoxide (1%) staining. The membrane integrity was then observed with transmission electron microscopy at 100,000× magnification. The outer black ring marked with CW represents cell wall, and the inner black ring marked with CM represents cell membrane. The arrow points the pore formed in S. aureus cell membrane.
To investigate how SC5005 changes membrane permeability of S. aureus, bacteria cells were treated with SC5005 for 15 min followed by glutaraldehyde (2.5%) fixation and osimium tetraoxide (1%) staining. The membrane of bacteria was then observed by Transmission electron microscopy (TEM) at 100,000 magnifications (FIG. 8). The outer clear black circle is cell wall of S. aureus, and the inner clear black circle is cell membrane of S. aureus. These two circles of control treated S. aureus remain intact, and the cell membrane is undamaged.

In series [8] the test system is MRSA (ATCC 43300). Briefly: Minimal biofilm eradication concentration, MRSA in the biofilm. The format is cell-based, methicillin-resistant Staphylococcus aureus. As to conditions: MRSA (ATCC 43300) in the biofilm. On the procedure: A biofilm is composed of attached microorganisms enclosed in an extracellular polymeric substance matrix. Bacteria embedded in the biofilm are protected from antibiotic-mediated killing and the immune response. Reports have shown that biofilm formation is an important factor contributing to S. aureus infections of the skin, lung and indwelling medical devices such as catheters. Thus, the effect of SC5005 on MRSA in a biofilm was assayed.

Series [9] has as its system S. aureus NCTC 8325. Description: Intracellular ATP leakage (ATPlite one-step). The format is cell-based, Staphylococcus aureus. As to conditions: 4×MIC for 15 min. How it is done: FIG. 6. Intracellular ATP leakage of S. aureus treated with SC5005, SC5035 and antibiotics. […] Data was presented as percentage of intracellular ATP level to that of untreated bacteria cells (considered as 100%). Bars represent the mean, and error bars represent the SD (n=3). ***: p-value <0.001
To investigate whether SC5005 and SC5035 also act on bacterial cell membrane, intracellular ATP levels of S. aureus treated with SC5005, SC5035 and antibiotics for 15 min was determined by using ATPlite one-step assay kit.

Series [10] deals with S. aureus NCTC 8325. Briefly: Membrane integrity (SYTO 9 / propidium iodide staining). Format: cell-based, Staphylococcus aureus. The following applies: 4×MIC (Triton X-100: 10%) for 15 minutes. From the text: FIG. 7. Membrane integrity of S. aureus after SC5005, SC5035 and five common antibiotics treatment. […] SYTO 9, a green fluorescence dye, stains chromosome of all bacteria cells, regardless of the membrane integrity. In contrast, propidium iodide (PI), a red fluorescence dye, only stains cell with damaged membrane. Thus, bacteria cell with intact membrane can only be stained by SYTO 9, and cell with perforated membrane will be stained by both fluorescence dyes, showing a yellow color in merged images.
To further validate the action mechanism of SC5005 and SC5035, two fluorescence dyes were used for evaluation of membrane integrity of drug treated S. aureus. The propidium iodide dye only stains cells with perforated membrane, while the SYTO 9 stains all cells in spite of membrane integrity.

Experimental for MRSA (ATCC 33592): (A) Effect of intraperitoneal administration of SC5005 on the survival of MRSA-infected mice. Female C57BL/6 mice were inoculated intraperitoneally with 5×10^4 CFU of MRSA (ATCC 33592). Infected mice received intraperitoneal injection of 1 mg/kg (filled inverted triangles), 3 mg/kg (filled triangles) and 10 mg/kg (filled squares) SC5005 or vehicle (mock) (filled circles) once per day for three consecutive days. Survival rates, as represented by Kaplan-Meier curves, are shown for the mock and SC5005 treatment groups. *P<0.05, for the difference between treated groups and the control group. (B) Body weight changes in individual vehicle or SC5005-treated MRSA-infected mice. Each line represents an individual mouse. The black lines indicate mice that survived until the end of the study and the grey lines indicate mice that were euthanized during the study.
To further evaluate the therapeutic potential of SC5005 against MRSA infection, inbred C57BL/6 mice were intraperitoneally injected with a lethal dose (5×10^4 CFU) of MRSA (ATCC 33592), followed by intraperitoneal administration of vehicle control or SC5005 (1 mg/kg, 3 mg/kg or 10 mg/kg) at 1 h, 24 h and 48 h post-infection (N=5 for each group).

As to `O=C(Nc1ccc(Cl)c(C(F)(F)F)c1)Nc1ccc(Cl)c(C(F)(F)F)c1` [SC78], the MIC in series [1], in [2] and in series [4] was more than 64 mg/L throughout. For the same molecule, in the series on S. aureus NCTC 8325 [3] (8-folds of MIC), the “reduction in CFU” value was “over 99.9%”. Also, the “bactericidal / bacteriostatic classification” value in the series with S. aureus NCTC 8325 [3] was “bactericidal”.

Take `O=C(Nc1ccc(Cl)c(C(F)(F)F)c1)C(CCCl)C(=O)Nc1ccc(Cl)c(C(F)(F)F)c1` [SC5005]: the MIC with MRSA (ATCC 43300) [5] and with MSSA ATCC 29213 was 0.5 mg/L (≈ 0.958 µM) in each case. The “incorporation signal in DNA, RNA, protein and cell wall biosynthesis” value in the series on S. aureus NCTC 8325 [6] is “lower signal in all four macromolecule biosynthesis pathway”. Also, the “hemolysis of RBC” value in the series on human red blood cells is “no significant hemolysis”. Moreover, the “reduction in CFU” value turned out to be 99.91% in the series on S. aureus NCTC 8325 [3] (4-folds of MIC) and 99.95% in the series on S. aureus NCTC 8325 [3] (8-folds of MIC). Also, the “bactericidal / bacteriostatic classification” value with S. aureus NCTC 8325 [3] was “bactericidal”. In addition, in the series on MRSA (ATCC 33592), the “time for body weight to return to pre-infection levels” value lay within 2 to 5 days. The “pore formation in cell membrane (TEM)” value in the series on S. aureus NCTC 8325 [7] is given as “a pore was observed in the membrane of most bacteria cells”. The molecule also gave an MBEC in the series on MRSA (ATCC 43300) [8] of 16 mg/L. For the same molecule, the “intracellular ATP levels” value in the series with S. aureus NCTC 8325 [9] was “significantly dropped”. In addition, in the series with S. aureus NCTC 8325 [10], the “propidium iodide staining (membrane integrity)” value is “can be stained by propidium iodide”.
